Measurements as given in patent EP0520336A2, “Aldehyde derivatives and their use as calpain inhibitors” (FUJIREBIO Inc., priority 1991, dated 1992).
Where a SMILES comes first, the peptide text is derived from it. [ ]: non-standard residue; d: D form. The star is where a group is joined. ξ: configuration not given here. Cbz = O=C(OCc1ccccc1)*; ξAze = O=C(O)C1CCN1

Key:
Calpain = assay: Measurement of calpain inhibiting effect (casein hydrolysis, IC50 by Probit); type: biochemical, Japanese white rabbit; settings: 30 °C for 30 minutes, pH = 7.5, IC50 by method of Probit
Method: Test Example 1 Measurement of Calpain Inhibiting Effect
Calpain was separated from a skeletal muscle of a Japanese white rabbit and partially purified according to the method of Tsuji and Imahori as described in J.Biochem. 90, 233-240 (1981), whereby the calpain for use in a test for investigating the calpain inhibiting effect (i.e., the inhibitory effect on calpain activity) of the aldehyde compounds according to the present invention was prepared.
The calpain inhibiting effect was measured in accordance with the method of Yoshimura et al. as described in J. Biol. Chem. 258, 8883-8889 (1983).
Each assay mixture was prepared by mixing 0.05 ml of a 4% casein solution, 0.05 ml of a 50 mM cysteine solution, 0.05 ml of a calpain solution, 0.025 ml of purified water, 0.025 ml of a 10% dimethyl sulfoxide solution containing each compound shown in Table 15 and 0.25 ml of a 200 mM imidazole hydrochloric acid buffer solution (pH = 7.5).
The thus prepared assay mixture was preincubated at 30 ° C for 3 minutes. The reaction was started by the addition of 0.05 ml of a 50 mM calcium chloride solution to the above mixture. After the incubation at 30 °C for 30 minutes, the reaction was terminated by the addition of 0.5 ml of 5% trichloroacetic acid.
The amount of a trichloroacetic-acid-soluble protein produced by hydrolysis of casein by calpain was measured by the spectrophotometric analysis in accordance with the method of Ross and Schatz as described in Anal. Biochem. 54, 304-306 (1973), and the absorbance (a) of each sample was measured.
The absorbance (b) of a blank sample which was treated similarly without any of the aldehyde compounds of the present invention, dissolved in a 10% dimethyl sulfoxide solution, was measured.
The inhibition of calpain activity was calculated in accordance with the formula [(b-a)/b] X 100, and the amount of each aldehyde compound necessary to inhibit calpain activity by 50% [IC50] was calculated according to the method of Probit.

[1] = system: Platelet rich plasma (PRP); assay: Measurement of platelet-aggregation inhibiting effect (collagen-induced aggregation in platelet rich plasma); type: cell-based, Japanese white rabbit; settings: collagen-induced aggregation in rabbit PRP, preincubated at 37°C for 5 minutes, IC50 by method of Probit
Method: Test Example 2 Measurement of Platelet-aggregation Inhibiting Effect
Platelet rich plasma (PRP) was prepared and the platelet aggregation was measured in accordance with the method of Born and Cross as described in J. Phystol. 168, 178-195 (1963).
Blood of a Japanese white rabbit was drawn from a carotid artery of the rabbit. 9 parts by volume of the blood were mixed with 1 part by volume of a 3.8% aqueous solution of sodium citrate. The mixture was immediately centrifuged at 200 x g at 20 °C for 15 minutes, and PRP was obtained in the supernate. The number of platelets was calculated by use of an electronic cell counter (MEK-4150 manufactured by Nihon Kohden Kabushiki Kaisha). PRP with 55 X 10^4 or more platelets per 1 µl was employed in the tests.
10 µl of a test solution containing any of the aldehyde compounds of the present invention was added to 200 µl of PRP. The mixture was preincubated at 37°C for 5 minutes. To this mixture, 10 µl of collagen (22 µg/ml) was added to cause the aggregation. The aggregation was measured by Agricometer (NKK, PAT-4A).
In preparing the above test solution, each compound synthesized in the previously mentioned Examples as shown in Table 16 was dissolved in combined dimethyl sulfoxide and polyoxyethylene 60 hardened castor oil in ethanol. The mixture was diluted with an isotonic saline and the final concentration of the dimethyl sulfoxide and polyoxyethylene 60 hardened castor oil contained in the above mixture was adjusted to less than 1 %.
The inhibitory activity of each aldehyde compound on platelet aggregation was expressed by percentages compared with a blank test defined as 100% which was performed without any of the aldehyde compounds.
The amount of each aldehyde compound necessary to inhibit the platelet aggregation by 50% [IC50] was calculated according to the method of Probit.

[2] = Oryctolagus cuniculus, Platelet

IC50 (Calpain) | Molecule | IC50 [1, 2] | IC50 [1]
780 nM | O=C[C@H](Cc1ccccc1)NC(=O)C1CCN(C(=O)c2ccc(Cl)c(Cl)c2)CC1 [1-36, 1-(3,4-dichlorobenzoyl)piperidine-4-carboxylic acid-(1S)-(1-formyl-2-phenyl)ethylamide] |  | 
1900 nM | O=C[C@H](Cc1ccccc1)NC(=O)C1CCN(C(=O)C(c2ccccc2)c2ccccc2)CC1 [1-38, 1-(diphenylacetyl)piperidine-4-carboxylic acid-(1S)-(1-formyl-2-phenyl)ethylamide] |  | 
2300 nM | O=C[C@H](Cc1ccccc1)NC(=O)C1CCN(C(=O)C2c3ccccc3-c3ccccc32)CC1 [1-39, 1-(9-fluorenylcarbonyl)piperidine-4-carboxylic acid-(1S)-(1-formyl-2-phenyl)ethylamide] |  | 
940 nM | O=C[C@H](Cc1ccccc1)NC(=O)C1CCN(C(=O)Nc2ccccc2)CC1 [1-41, 1-(N-phenylcarbamoyl)piperidine-4-carboxylic acid-(1S)-(1-formyl-2-phenyl)ethylamide] |  | 
1230 nM | CC(C)C[C@H](OC(=O)Nc1cccc2ccccc12)C(=O)N[C@H](C=O)CCc1ccccc1 [2-13] |  | 
1900 nM | CSCC[C@@H](C=O)NC(=O)[C@H](CC(C)C)OC(=O)Nc1cccc2ccccc12 [2-14] |  | 
6600 nM | CSCC[C@@H](C=O)NC(=O)C1CCN1C(=O)OCc1ccccc1 (stereo partly drawn) [Compound No. 1-1, (2R,2S)-1-benzyloxycarbonyl-azetidine-2-carboxylic acid-(1 S)-(1-formyl-3-methylthio)-propylamide] (Cbz-[ξAze]-Met-aldehyde) |  | 
560 nM | O=C[C@H](Cc1ccccc1)NC(=O)C1CCN(C(=O)/C=C/c2cccc(Cl)c2)CC1 [Compound No. 1-43, 1-(3-chlorocinnamoyl)piperidine-4-carboxylic acid-(1S)-(1-formyl-2-phenyl)ethylamide] |  | 
630 nM | O=C[C@H](Cc1ccccc1F)NC(=O)C1CCN(C(=O)c2ccc3ccccc3c2)CC1 [Compound No. 1-55, 1-(2-naphthoyl)piperidine-4-carboxylic acid-(1S)-[1-formyl-2-(2-fluorophenyl)]ethylamide] |  | 
1600 nM | CSCC[C@@H](C=O)NC(=O)[C@H](CC(C)C)OC(=O)Nc1ccccc1 [Compound No. 2-3] |  | 
3600 nM | CC(C)C[C@H](OC(=O)Nc1ccccc1)C(=O)N[C@H](C=O)CCSCc1ccccc1F [Compound No. 2-17] |  | 
580 nM | CC(C)C[C@H](OC(=O)Nc1cccc2ccccc12)C(=O)N[C@H](C=O)CCSCc1ccccc1F [Compound No. 2-18] |  | 
4400 nM | CC(C)C[C@H](OC(=O)Nc1cccc2ccccc12)C(=O)N[C@H](C=O)Cc1ccccc1 [Compound No. 2-20] |  | 
2000 nM | CSCC[C@@H](C=O)NC(=O)[C@@H](OC(=O)Nc1ccccc1)C(C)C [Compound No. 2-21] |  | 
3300 nM | CSCC[C@@H](C=O)NC(=O)[C@@H](OC(=O)Nc1cccc2ccccc12)C(C)C [Compound No. 2-22] |  | 

Second part, the molecule before the results:

Molecule | IC50 (Calpain) | IC50 [1, 2] | IC50 [1]
O=C[C@H](Cc1ccccc1)NC(=O)C1CCN(C(=O)OCc2ccccc2)CC1 [1-7, 1-benzyloxycarbonylpiperidine-4-carboxylic acid-(1S)-(1-formyl-2-phenyl)ethylamide] | 3000 nM |  | 
O=C[C@H](Cc1ccccc1)NC(=O)C1CCN(C(=O)CCCc2ccccc2)CC1 [1-26, 1-(4-phenylbutyryl)piperidine-4-carboxylic acid-(1S)-(1-formyl-2-phenyl)ethylamide] | 890 nM |  | 
O=C[C@H](Cc1ccccc1)NC(=O)C1CCN(C(=O)c2ccc3ccccc3c2)CC1 [1-28, 1-(2-naphthoyl)piperidine-4-carboxylic acid-(1S)-(1-formyl-2-phenyl)ethylamide] | 220 nM |  | 
Cc1ccc(S(=O)(=O)N2CCC(C(=O)N[C@H](C=O)Cc3ccccc3)CC2)cc1 [1-30, 1-(4-methylphenylsulfonyl)piperidine-4-carboxylic acid-(1S)-(1-formyl-2-phenyl)ethylamide] | 1100 nM |  | 
O=C[C@H](Cc1ccccc1)NC(=O)C1CCN(C(=O)c2cccs2)CC1 [1-32, 1-(2-thienylcarbonyl)piperidine-4-carboxylic acid-(1S)-(1-formyl-2-phenyl)ethylamide] | 2000 nM |  | 
O=C[C@H](Cc1ccccc1)NC(=O)C1CCN(S(=O)(=O)c2ccc3ccccc3c2)CC1 [1-34, 1-(2-naphthylsulfonyl)piperidine-4-carboxylic acid-(1S)-(1-formyl-2-phenyl)ethylamide] | 170 nM |  | 
O=C[C@H](CCSCc1ccccc1Cl)NC(=O)C1CCN(C(=O)c2ccc3ccccc3c2)CC1 [1-51, 1-(2-naphthoyl)piperidine-4-carboxylic acid-(1S)-[1-formyl-3-(2-chlorobenzylthio)]propylamide] | 1400 nM | 10000 nM | 
O=C[C@H](CCSCc1ccc(Cl)cc1)NC(=O)C1CCN(C(=O)/C=C/c2ccccc2Cl)CC1 [1-62, 1-(2-chlorocinnamoyl)piperidine-4-carboxylic acid-(1S)-[1-formyl-3-(4-chlorobenzylthio)]-propylamide] | 1600 nM | 17000 nM | 
CC(C)C[C@H](OC(=O)Nc1ccccc1)C(=O)N[C@H](C=O)CCSCc1ccc(Cl)cc1 [2-27] |  | 65000 nM | 
O=C[C@H](Cc1ccccc1)NC(=O)C1CCN(C(=O)/C=C/c2ccccc2)CC1 [Compound No. 1-27, 1-cinnamoylpiperidine-4-carboxylic acid-(1S)-(1-formyl-2-phenyl)ethylamide] | 750 nM | 2900 nM | 
O=C[C@H](Cc1ccccc1)NC(=O)C1CCN(C(=O)/C=C/c2ccccc2Cl)CC1 [Compound No. 1-42, 1-(2-chlorocinnamoyl)piperidine-4-carboxylic acid-(1S)-(1-formyl-2-phenyl)ethylamide] | 350 nM | 23000 nM | 
O=C[C@H](Cc1ccccc1)NC(=O)C1CCN(C(=O)/C=C/c2ccc(Cl)cc2)CC1 [Compound No. 1-44, 1-(4-chlorocinnamoyl)piperidine-4-carboxylic acid-(1S)-(1-formyl-2-phenyl)ethylamide] | 990 nM | 47000 nM | 
O=C[C@H](Cc1c[nH]c2ccccc12)NC(=O)C1CCN(C(=O)/C=C/c2ccccc2Cl)CC1 [Compound No. 1-58, 1-(2-chlorocinnamoyl)piperidine-4-carboxylic acid-(1S)-[1-formyl-2-(3-indolyl)]ethylamide] | 680 nM | 22000 nM | 
O=C[C@H](Cc1ccc(OCc2ccccc2)cc1)NC(=O)C1CCN(C(=O)/C=C/c2ccccc2)CC1 [Compound No. 1-61, 1-cinnamoylpiperidine-4-carboxylic acid-(1S)-[1-formyl-2-(4-benzyloxyphenyl)]ethyl] | 880 nM | 9600 nM | 
CC(C)C[C@H](OC(=O)Nc1ccccc1)C(=O)N[C@H](C=O)Cc1ccccc1 [Compound No. 2-19] | 590 nM | 4200 nM | 
L-N-benzyloxycarbonylleucine-(2S)-[1-formyl-3-(2-chlorophenyl)thio]propylamide [Compound No. 3-42] | 440 nM |  | 94000 nM
L-N-benzyloxycarbonylleucine-(2S)-[1-formyl-3-(2-fluorophenyl)thio]propylamide [Compound No. 3-41] | 270 nM |  | 56000 nM
L-N-benzyloxycarbonylleucine-(2S)-[1-formyl-3-(4-chlorophenyl)thio]propylamide [Compound No. 3-43] | 520 nM |  | 52000 nM
